According to patent US20240287136A1, “PHARMACEUTICAL COMPOSITION AND THE USE THEREOF IN THE TREATMENT OF AUTOIMMUNE DISEASES” (Singapore Health Services Pte. Ltd., priority 2016, published 2024):
Ends that are not written are not given here.

How the values were obtained:
[1] = test system: effector T cells (Teff) (CD4+CD127+); assay: Gene expression in FACS-sorted Teff of trial patients (TaqMan); format: in vivo, human
Protocol: (§1) FIG. 3. Effector and regulatory T cell function differ according to clinical response: a. effector T cells (Teff) (CD4+CD127+) at beginning of the trial (TO) and end of the study (Tend) were compared for PD-1 expression in both SEQ ID NO. 1 clinical responders and placebo clinical non-responders by FACS. b. FACS-sorted Teffwere analyzed for IL-17 and for RORC. Teff were stained intracellularly with IL-17A, and analyzed by FACS. c. regulatory T cell (Treg) (CD4+CD25++CD127−) frequency (% of PBMC) was determined in SEQ ID NO. 1—treated clinical responders by FACS. […] Values are the mean and s.e.m. d. Treg functionality in SEQ ID NO. […] (placebo clinical non-responders vs SEQ ID NO. 1 clinical responders, —76.21+/−3.665 vs 8.443+/−4.677, n=2 vs 3, t-test p0.0010). Values are the mean and s.e.m.
(§2) In FIG. 3b Y axis: % net change between Tend and T0 for both Teff producing IL-17A (first two columns, measured by FACS) and RORC expression (measured by TaqMan). […] Results were analyzed as a percentage of GAPDH. […] Values are the mean and s.e.m.
Successful treatment with SEQ ID NO: 1 therefore induced an immune deviation of Teff cells by reducing their ability to produce pro-inflammatory cytokines. An increase in the number of Treg cells could be one possible explanation for this observation.

[2] = test system: Treg (CD4+CD25++CD127−) cells; assay: PD-1 expression on Treg by FACS after incubation with SEQ ID NO. 1; format: cell-based, human; conditions: after incubation with 10 mg/ml of SEQ ID NO. 1
Protocol: FIG. 5. PD-1 actively contributes to Treg function: a. Treg ability to suppress Teff proliferation was determined by CFSE dilution. A representative clinical responder is depicted. Treg cells were sorted by FACS according to the phenotype depicted in the table and incubated with Teff in the presence of 10 mg/ml of SEQ ID NO. 1. b. […] 1. c. […] 1. Line with white area under the curve depicts T0, grey area depicts Tend. T(x)=Probability binning. % PD-1+Treg is expressed as percentage of the total Treg population (insets in both panels). d. […] PD-1+Treg cells were stained by FACS after a 5-day incubation with Teff and APC in the presence or absence of anti-PD1 antibody. Details in methods. Line with white area under the curve depicts anti-PD1 treated, grey area depicts untreated. T(x)=Probability binning. e. pSTAT5 was examined in Treg via immunofluorescent microscopy. Cells, staining and slides were prepared according to procedures outlined in the methods. The average pSTAT5 expression per cell for anti-PD-1 treatment, as determined by the average integral density per unit area, was calculated using ImageJ (Rasband, W. S., ImageJ, http://rsb.info.nih.gov/ij/, 1997-2009). Untreated vs. anti-PD-1 treated: 38.79 vs. 33.07, standard deviation 4.27 vs. […], t-test p<0.0001. f. […] Teff were stained by FACS after a 5-day incubation in the presence or absence of anti-PD1 antibody. Details in methods. Line with white area under the curve depicts anti-PD1 treated, grey area depicts untreated. T(x)=Probability binning. g. Total Treg, PD-1+Treg and PD-1− Treg from clinical responders (n=S) at Tend were sorted and RNA expression of CTLA-4, FoxP3, IL-10 and TGF-β was measured by TaqMan. Data are expressed as 2(−dCT)×100 of GAPDH. […] 1 clinical responders (18.99+/−3.412 vs 2.693+/−1.434, n=S p=0.0130).

[3] = test system: regulatory T cell (Treg) (CD4+CD25++CD127−); assay: Treg frequency in PBMC of trial patients by FACS; format: in vivo, human
Protocol: as §1
It is not detected in clinical responders a change in frequency of CD4+/CD25++/CD127-Treg between beginning and end of the trial (FIG. 3c). A highly significant difference between treatment responders and placebo non-responders was found in the suppressive ability of Treg at the end of the trial (FIG. 3d). This difference indicates a restoration of Treg functionality in clinical responders to treatment with SEQ ID NO. 1 (FIG. 3d and Sa).
Successful treatment with SEQ ID NO: 1 therefore induced an immune deviation of Teff cells by reducing their ability to produce pro-inflammatory cytokines. […]

[4] = test system: patients with early rheumatoid arthritis; assay: Phase II trial of mucosal tolerization to SEQ ID NO. 1: clinical outcome; format: in vivo, human
Protocol: The model employed here is based on the hypothesis that immune tolerization to a T-cell epitope, such as SEQ ID NO. 1 that may be a contributor of inflammation in patients with rheumatoid arthritis, may lead to detectable clinical improvement. A total of 96 patients with early rheumatoid arthritis, who were not allowed on Methotrexate or biologics, were tested with mucosal tolerization to SEQ ID NO. 1. Patients are defined as “responders” if they meet the response criteria at any time during the study. […] SEQ ID NO. […]

[5] = test system: effector T cells (Teff) (CD4+CD127+); assay: FACS of effector T cells of trial patients (PD-1, intracellular IL-17A, IL-23 receptor); format: in vivo, human
Protocol: as §1
Therefore, a first hypothesis to test here is whether CD4+/CD127+T effector (Teff) cell anergy was induced by treatment with SEQ ID NO. 1. […] In addition, Teff were able to proliferate to conventional polyclonal stimuli (data not shown).
Further analysis of Teff in SEQ ID NO. […] Conversely, an increased expression in IL-17A expression was detected in placebo—treated clinical non-responders. […] 1 induced an immune deviation of Teff with a reduction in the ability to produce pro-inflammatory cytokines.
as §2

[6] = test system: latent TGFβ binding protein 4 (LTBP-4) gene; assay: Gene array analysis of PBMCs of trial patients; format: in vivo, human; conditions: SEQ ID NO: 1 responders (FIG. 14A)
[7] = format: in vitro ADME; conditions: without a linker; data not shown
Source text: This is synthetically of less interest to a person skilled in the art since it usually involves multiple-step synthesis for making the peptide. In the presence of the linker, the peptide SEQ ID No: 1 and the antirheumatic drug can be administered in equal proportion because the linker protects the peptide from degradation and thus enhance the stability of the peptide.

[8] = responders, end of the treatment regime (FIG. 9A)

QKRAAYDQYGHAAFE-NH2 [SEQ ID NO. 1]
RORC gene expression in Teff ([1]; clinical responders, Tend, T0 3.382+/−0.684, mean and s.e.m.): 1.670+/−0.714 percentage of GAPDH
IFNγ expression in CD4+Teff cells [1, 8]: significantly lower levels
IL-17A expression in CD4+Teff cells [1, 8]: significantly lower levels
PD-1+ Treg as percentage of total Treg ([2]; clinical responder, T0): 13.3%
PD-1+ Treg as percentage of total Treg ([2]; clinical responder, Tend): 41%
PD-1+ Treg as percentage of total Treg ([2]; representative clinical non-responder, T0): 15.5%
PD-1+ Treg as percentage of total Treg ([2]; representative clinical non-responder, Tend): 12.7%
change of frequency of Tregs between beginning and end of the trial ([3]; FIG. 9B): did not change
Treg frequency in PBMC ([3]; clinical responders, Tend, T0 7.773+/−1.432, n=4, mean and s.e.m.): 7.610+/−1.519 % of PBMC
safety of mucosal tolerization ([4]; 96 patients with early rheumatoid arthritis): safe
clinical efficacy ([4]; 96 patients with early rheumatoid arthritis, no Methotrexate or biologics): comparable to the use of Methotrexate alone
joint pain ([4]; after treatment withdrawal (FIG. 11E)): Sustained improvements
joint swelling ([4]; after treatment withdrawal (FIG. 11F)): Sustained improvements
Physician global assessment scores ([4]; one month after clinical withdrawal, versus placebo (FIG. 11D)): performed better than placebo
IL-23 receptor expression in Teff ([5]; SEQ ID NO. 1-treated clinical responders, not shown): decrease
Intracellular IL-17A expression in Teff cells ([5]; clinical responders, Tend, T0 8.003+/−0.07839%, n=3, mean and s.e.m.): 4.873+/−0.6933%
% of PD-1+ in the total Teff population ([5]; clinical responders, end of trial (Tend), T0 6.312+/−1.428, n=5, mean+/−s.e.m.): 4.930+/−1.433%
expression of latent TGFβ binding protein 4 (LTBP-4) gene in PBMCs [6]: marginal upregulation
stability of the peptide upon ingestion [7]: prone to degradation upon ingestion
